One molecule from publication PMC8253976, “Extracellular loops of the serotonin transporter act as a selectivity filter for drug binding” (The Journal of Biological Chemistry, 2021) can be followed below.

Like-named read-outs stand apart in the source and are kept apart here.

Assay [1] has as its target T1, SERT (Homo sapiens, UniProt P31645). Description: [^3H]imipramine binding to membranes harboring GFP-tagged SERT. Also noted: expressed in transfected cells; membrane preparation. To be noted: in the presence of 8B6 scFv, 15B8 Fab, or antiSERT-EL4 antibody; data not shown.
For assay [2], the target named is T1, SERT. Description: Electrophysiological measurement of methylphenidate binding kinetics to SERT (peak current inhibition and recovery). In kind it is cell-based. The arrangement: expressed in transfected cells. The settings on record: for koff: peak current recovery after washout, read-out: dissociation rate koff from SERT; for association rate constant kon for binding to SERT / kon: y-intercept constrained to koff; for kon: read-out: association rate constant kon for binding to SERT. The method, then:
Accordingly, we explored the hypothesis that restricting the flexibility of extracellular loops may increase the affinity of methylphenidate. […] We therefore resorted to an electrophysiological approach, which relies on the substrate-induced peak current through SERT for determining the occupancy of the binding site by methylphenidate. […] The recordings were done in the presence of high internal Na^+ (152 mM) because a high internal Na^+ concentration eliminates the steady-state current component ([5]). The isolated peak current can be quantified with high precision ([5]). The association rate of methylphenidate in the absence (Fig. 9A) and presence (Fig. 9B) of 15B8 Fab was measured by applying 5-HT (30 μM) for 3 s to obtain the reference current. Cells were subsequently exposed to methylphenidate for time intervals varying between 0.2, 0.5, 1, 2, 5, and 10 s prior to eliciting a current by fresh superfusion with 5-HT. This allowed for monitoring the onset of the methylphenidate-induced inhibition of the peak current.
Peak currents were isolated (i.e., the steady-state current was suppressed) by a high concentration of Na^+ (152 mM) in the internal solution in the patch pipet. Shown is the compilation of representative peak current traces from a single cell. […] The dashed lines were drawn by fitting the decline in peak current amplitude to an equation for a monoexponential decay to a residual activity. C and D, the experiments were carried out as outlined in panels A and B with 10, 30, 100, and 300 μM methylphenidate (MPH) in the absence (C) and presence of 300 nM 15B8 Fab 8 (D). The peak current reduction was normalized by dividing test currents by the reference current and plotted as a function of time. Data are means ± SD from three to seven independent recordings for each concentration of methylphenidate. […] Then, the peak currents were elicited by rapid application of 30 μM 5-HT with 0, 0.2, 0.5, 1, 2, 5, and 10 s delay to observe its recovery.

T1 sequence (P31645 whole entry): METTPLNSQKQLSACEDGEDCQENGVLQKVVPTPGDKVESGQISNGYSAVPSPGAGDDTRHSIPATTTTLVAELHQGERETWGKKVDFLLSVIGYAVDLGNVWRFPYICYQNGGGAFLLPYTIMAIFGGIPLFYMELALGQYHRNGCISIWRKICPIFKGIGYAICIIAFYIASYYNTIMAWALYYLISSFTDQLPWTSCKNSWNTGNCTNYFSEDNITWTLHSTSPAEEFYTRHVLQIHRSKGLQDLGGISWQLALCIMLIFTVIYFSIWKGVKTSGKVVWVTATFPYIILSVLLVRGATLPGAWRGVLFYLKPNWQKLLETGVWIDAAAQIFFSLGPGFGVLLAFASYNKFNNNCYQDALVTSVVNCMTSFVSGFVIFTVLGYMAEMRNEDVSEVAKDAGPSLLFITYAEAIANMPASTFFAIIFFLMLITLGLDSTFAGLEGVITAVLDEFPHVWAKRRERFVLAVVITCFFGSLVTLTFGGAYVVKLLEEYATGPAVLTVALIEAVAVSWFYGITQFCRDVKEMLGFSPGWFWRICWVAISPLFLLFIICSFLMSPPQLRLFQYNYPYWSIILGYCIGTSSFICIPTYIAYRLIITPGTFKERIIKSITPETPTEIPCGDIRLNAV

For orientation: koff means the rate constant with which the complex falls apart. The term kon denotes the rate constant with which the complex forms. For `COC(=O)C(c1ccccc1)C1CCCCN1` (stereo not drawn) [methylphenidate], on SERT [1], the “competition curve versus [^3H]imipramine” value is given as “shift to the left”. The apparent on-rate kapp on SERT [2] (10 μM methylphenidate, absence of 15B8 Fab) came to 0.36 ± 0.12 s⁻¹; on SERT [2] (10 μM methylphenidate, presence of 300 nM 15B8 Fab) it was 1.20 ± 0.42 s⁻¹; at SERT [2] (30 μM methylphenidate, absence of 15B8 Fab), 0.87 ± 0.20 s⁻¹; at SERT [2] (30 μM methylphenidate, presence of 300 nM 15B8 Fab), 1.29 ± 0.27 s⁻¹; on SERT [2] (100 μM methylphenidate, absence of 15B8 Fab), 1.53 ± 0.40 s⁻¹; at SERT [2] (100 μM methylphenidate, presence of 300 nM 15B8 Fab), 2.72 ± 0.45 s⁻¹. The apparent on-rate kapp at SERT [2] (300 μM methylphenidate, absence of 15B8 Fab) was found to be 3.46 ± 0.51 s⁻¹; on SERT [2] (300 μM methylphenidate, presence of 300 nM 15B8 Fab), 6.54 ± 1.04 s⁻¹. Also, the koff at SERT [2] (absence of 15B8 Fab) was 0.89 ± 0.14 s⁻¹; at SERT [2] (presence of 15B8 Fab (300 nM)), 0.8 ± 0.12 s⁻¹. Also, the entries for the “association rate constant kon for binding to SERT” value at SERT [2] (absence of 15B8 Fab) and at SERT [2] (presence of 15B8 Fab (300 nM)) were 8.55 ± 1.03 × 10^3 M^−1 s^−1 and 1.92 ± 0.06 × 10^4 M^−1 s^−1, respectively. Moreover, the kon amounted to 8950 ± 1.03e+06 M⁻¹ s⁻¹ on SERT [2] (absence of 15B8 Fab) and 19600 ± 6e+06 M⁻¹ s⁻¹ on SERT [2] (presence of 15B8 Fab (300 nM)).
